Assays:
Glucocorticoid receptor [1] = molecular target: T1, Glucocorticoid receptor (Homo sapiens, UniProt P04150); assay: Agonist activity at GR in human A549 cells transfected with luciferase gene linked to MMTV promoter assessed as luciferase transactivation activity after 24 hrs; type: functional, cell-based
T1 sequence (P04150 whole entry): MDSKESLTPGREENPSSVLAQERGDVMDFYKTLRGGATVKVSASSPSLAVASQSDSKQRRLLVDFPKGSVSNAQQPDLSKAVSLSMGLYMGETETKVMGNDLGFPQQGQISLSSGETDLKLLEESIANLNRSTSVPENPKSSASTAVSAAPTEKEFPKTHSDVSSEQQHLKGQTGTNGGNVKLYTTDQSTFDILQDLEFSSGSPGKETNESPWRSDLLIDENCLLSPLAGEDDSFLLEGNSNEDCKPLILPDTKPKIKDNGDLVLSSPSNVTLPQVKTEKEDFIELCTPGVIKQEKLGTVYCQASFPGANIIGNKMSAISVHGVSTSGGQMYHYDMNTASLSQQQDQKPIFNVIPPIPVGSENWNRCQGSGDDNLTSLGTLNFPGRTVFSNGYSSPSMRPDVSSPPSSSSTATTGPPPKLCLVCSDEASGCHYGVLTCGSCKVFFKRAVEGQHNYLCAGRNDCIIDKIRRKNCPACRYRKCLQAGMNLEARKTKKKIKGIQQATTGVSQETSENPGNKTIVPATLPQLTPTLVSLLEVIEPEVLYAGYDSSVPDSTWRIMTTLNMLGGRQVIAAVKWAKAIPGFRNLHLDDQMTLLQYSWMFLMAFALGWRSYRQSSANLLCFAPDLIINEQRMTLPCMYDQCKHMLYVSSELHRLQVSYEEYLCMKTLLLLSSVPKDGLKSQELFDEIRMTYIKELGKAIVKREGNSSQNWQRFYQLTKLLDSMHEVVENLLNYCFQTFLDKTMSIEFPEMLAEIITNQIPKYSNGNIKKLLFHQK

Glucocorticoid receptor [2] = molecular target: T1, Glucocorticoid receptor; assay: Displacement of fluorescent-labeled Dexamethasone from GR by fluorescent polarization assay
Progesterone receptor = molecular target: T2, Progesterone receptor (Homo sapiens, UniProt P06401); assay: Binding affinity to PR
T2 sequence (P06401 whole entry): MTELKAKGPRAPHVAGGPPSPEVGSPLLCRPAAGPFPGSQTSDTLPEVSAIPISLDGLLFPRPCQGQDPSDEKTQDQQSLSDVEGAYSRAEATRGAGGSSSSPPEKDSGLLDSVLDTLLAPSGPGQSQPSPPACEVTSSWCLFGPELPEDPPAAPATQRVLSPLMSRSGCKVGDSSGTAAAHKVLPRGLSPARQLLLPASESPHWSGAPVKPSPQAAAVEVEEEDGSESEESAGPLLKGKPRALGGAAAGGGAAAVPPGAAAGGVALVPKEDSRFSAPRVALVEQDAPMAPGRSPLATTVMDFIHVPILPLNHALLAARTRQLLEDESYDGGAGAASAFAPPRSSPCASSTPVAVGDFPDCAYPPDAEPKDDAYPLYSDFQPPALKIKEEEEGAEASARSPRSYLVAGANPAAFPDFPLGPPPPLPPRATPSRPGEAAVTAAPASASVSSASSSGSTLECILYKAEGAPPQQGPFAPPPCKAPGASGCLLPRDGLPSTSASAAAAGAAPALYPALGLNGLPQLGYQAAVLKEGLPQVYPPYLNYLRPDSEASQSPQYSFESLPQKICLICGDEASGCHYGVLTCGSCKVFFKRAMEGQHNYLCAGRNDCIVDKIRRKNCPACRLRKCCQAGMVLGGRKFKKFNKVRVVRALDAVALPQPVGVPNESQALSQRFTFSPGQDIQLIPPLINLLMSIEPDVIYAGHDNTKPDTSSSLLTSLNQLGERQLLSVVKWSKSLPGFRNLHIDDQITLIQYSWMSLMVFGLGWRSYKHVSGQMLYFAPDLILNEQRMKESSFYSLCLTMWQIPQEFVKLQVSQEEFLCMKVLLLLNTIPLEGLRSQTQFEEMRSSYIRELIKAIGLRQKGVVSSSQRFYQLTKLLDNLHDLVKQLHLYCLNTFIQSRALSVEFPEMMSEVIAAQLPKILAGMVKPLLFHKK

Glucocorticoid receptor [3] = molecular target: T1, Glucocorticoid receptor; assay: Activity at GR in human A549 cells by NF-kappaB transrepression assay; type: cell-based
Androgen receptor = molecular target: T3, Androgen receptor (Homo sapiens, UniProt P10275)
T3 sequence (P10275 whole entry): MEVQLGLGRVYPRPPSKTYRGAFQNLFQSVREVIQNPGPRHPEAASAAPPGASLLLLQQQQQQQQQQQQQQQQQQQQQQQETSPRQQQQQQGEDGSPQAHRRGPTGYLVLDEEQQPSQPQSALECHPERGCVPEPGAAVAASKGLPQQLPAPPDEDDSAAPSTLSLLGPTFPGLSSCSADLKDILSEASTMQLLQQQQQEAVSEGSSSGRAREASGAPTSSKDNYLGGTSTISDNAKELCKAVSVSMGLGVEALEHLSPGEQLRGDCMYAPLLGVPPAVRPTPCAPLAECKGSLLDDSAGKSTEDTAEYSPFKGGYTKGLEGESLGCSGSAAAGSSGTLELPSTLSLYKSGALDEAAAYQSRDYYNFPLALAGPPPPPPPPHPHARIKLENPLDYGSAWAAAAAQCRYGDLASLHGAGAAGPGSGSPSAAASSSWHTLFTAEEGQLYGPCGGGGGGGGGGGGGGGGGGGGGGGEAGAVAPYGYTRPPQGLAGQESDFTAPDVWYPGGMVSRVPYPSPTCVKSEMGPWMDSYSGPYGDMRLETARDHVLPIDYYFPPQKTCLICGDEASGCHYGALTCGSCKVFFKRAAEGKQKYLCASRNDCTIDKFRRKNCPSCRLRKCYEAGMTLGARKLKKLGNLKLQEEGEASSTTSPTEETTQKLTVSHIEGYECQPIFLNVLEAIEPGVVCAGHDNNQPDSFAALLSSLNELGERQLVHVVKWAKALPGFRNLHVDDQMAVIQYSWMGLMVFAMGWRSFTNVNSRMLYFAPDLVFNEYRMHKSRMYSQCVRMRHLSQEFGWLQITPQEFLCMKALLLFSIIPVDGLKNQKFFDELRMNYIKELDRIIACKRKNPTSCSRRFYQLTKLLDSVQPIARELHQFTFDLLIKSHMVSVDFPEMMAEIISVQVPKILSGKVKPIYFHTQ

Glucocorticoid receptor [4] = molecular target: T1, Glucocorticoid receptor; assay: Antagonist activity at GR in human A549 cells transfected with luciferase gene linked to MMTV promoter assessed as inhibition of dexamethasone-induced luciferase transactivation activity after 24 hrs; type: functional, cell-based

SMILES	IC50 (Glucocorticoid receptor [2])	IC50 (Progesterone receptor)	IC50 (Glucocorticoid receptor [3])	IC50 (Androgen receptor)	IC50 (Glucocorticoid receptor [4])	EC50 (Glucocorticoid receptor [1])
O=S(=O)(Nc1ccc(-c2ccc3c(cnn3-c3ccc(F)cc3)c2)c(C(F)(F)F)c1)c1ccsc1	0.0126 µM	> 10 µM	0.1 µM	2.51 µM	–	0.251 µM
CC(C)NS(=O)(=O)c1ccc(-c2ccc3c(cnn3-c3ccc(F)cc3)c2)c(C(F)(F)F)c1	0.0126 µM	3.16 µM	> 10 µM	> 10 µM	1.26 µM	–
O=S(=O)(Nc1ccccc1)c1ccc(-c2ccc3c(cnn3-c3ccc(F)cc3)c2)c(C(F)(F)F)c1	0.0251 µM	> 10 µM	> 10 µM	> 10 µM	3.16 µM	–
CN(c1ccccc1)S(=O)(=O)c1ccc(-c2ccc3c(cnn3-c3ccc(F)cc3)c2)c(C(F)(F)F)c1	0.0126 µM	0.794 µM	0.398 µM	> 10 µM	–	0.631 µM
CC(C)S(=O)(=O)Nc1ccc(-c2ccc3c(cnn3-c3ccc(F)cc3)c2)c(C(F)(F)F)c1	0.0126 µM	> 10 µM	0.0501 µM	> 10 µM	–	0.158 µM
O=S(=O)(Nc1ccc(-c2ccc3c(cnn3-c3ccc(F)cc3)c2)c(C(F)(F)F)c1)c1ccccc1	0.0158 µM	> 10 µM	> 10 µM	6.31 µM	1.58 µM	–
CC(C)(C)c1ccc(S(=O)(=O)Nc2ccc(-c3ccc4c(cnn4-c4ccc(F)cc4)c3)c(C(F)(F)F)c2)cc1	0.0501 µM	> 2.51 µM	> 10 µM	> 10 µM	10 µM	–
COc1cccc(S(=O)(=O)Nc2ccc(-c3ccc4c(cnn4-c4ccc(F)cc4)c3)c(C(F)(F)F)c2)c1	0.0158 µM	> 10 µM	0.0794 µM	3.16 µM	–	0.251 µM
Oc1ccc(-c2ccc3c(cnn3-c3ccc(F)cc3)c2)cc1	0.631 µM	> 10 µM	> 10 µM	> 10 µM	–	–
CS(=O)(=O)Nc1ccc(-c2ccc3c(cnn3-c3ccc(F)cc3)c2)c(C(F)(F)F)c1	0.01 µM	> 10 µM	> 10 µM	5.01 µM	1.58 µM	–
Fc1ccc(-n2ncc3cc(-c4ccccc4C(F)(F)F)ccc32)cc1	0.251 µM	2.51 µM	> 10 µM	> 10 µM	–	–
CCCS(=O)(=O)Nc1ccc(-c2ccc3c(cnn3-c3ccc(F)cc3)c2)c(C(F)(F)F)c1	0.0158 µM	> 10 µM	> 10 µM	3.16 µM	2 µM	–
CC(C)c1cc(C(C)C)c(S(=O)(=O)Nc2ccc(-c3ccc4c(cnn4-c4ccc(F)cc4)c3)c(C(F)(F)F)c2)c(C(C)C)c1	0.251 µM	> 10 µM	> 10 µM	> 10 µM	> 10 µM	–
CCOc1ccccc1-c1ccc2c(cnn2-c2ccc(F)cc2)c1	0.501 µM	> 10 µM	> 10 µM	> 10 µM	–	–
CCCNS(=O)(=O)c1ccc(-c2ccc3c(cnn3-c3ccc(F)cc3)c2)c(C(F)(F)F)c1	0.0316 µM	0.794 µM	> 10 µM	6.31 µM	3.16 µM	–
CC(C)CNS(=O)(=O)c1ccc(-c2ccc3c(cnn3-c3ccc(F)cc3)c2)c(C(F)(F)F)c1	0.0398 µM	0.631 µM	> 10 µM	6.31 µM	3.16 µM	–
CCS(=O)(=O)Nc1ccc(-c2ccc3c(cnn3-c3ccc(F)cc3)c2)c(C(F)(F)F)c1	0.01 µM	> 10 µM	> 10 µM	5.01 µM	2 µM	–
CCNS(=O)(=O)c1ccc(-c2ccc3c(cnn3-c3ccc(F)cc3)c2)c(C(F)(F)F)c1	0.02 µM	1.58 µM	> 10 µM	3.16 µM	2 µM	–
Fc1ccc(-n2ncc3cc(-c4ccc(C(F)(F)F)cc4)ccc32)cc1	> 10 µM	> 10 µM	> 10 µM	> 10 µM	–	–
O=S(=O)(NCCO)c1ccc(-c2ccc3c(cnn3-c3ccc(F)cc3)c2)c(C(F)(F)F)c1	0.0158 µM	5.01 µM	> 10 µM	10 µM	2 µM	–
Cc1ccccc1-c1ccc2c(cnn2-c2ccc(F)cc2)c1	1.26 µM	6.31 µM	> 10 µM	> 10 µM	–	–

The next lines start with results.

IC50 (Glucocorticoid receptor [2])	IC50 (Progesterone receptor)	IC50 (Glucocorticoid receptor [3])	IC50 (Androgen receptor)	IC50 (Glucocorticoid receptor [4])	SMILES	EC50 (Glucocorticoid receptor [1])
3.16 µM	> 10 µM	> 10 µM	> 10 µM	–	Fc1ccc(-n2ncc3cc(-c4ccccc4)ccc32)cc1	–
0.794 µM	2.51 µM	> 10 µM	> 10 µM	–	Oc1cccc(-c2ccc3c(cnn3-c3ccc(F)cc3)c2)c1	–
2.51 µM	> 10 µM	> 10 µM	> 10 µM	–	CCOc1cccc(-c2ccc3c(cnn3-c3ccc(F)cc3)c2)c1	–
3.16 µM	1.58 µM	> 10 µM	> 10 µM	–	Fc1ccc(-n2ncc3cc(-c4cccc(C(F)(F)F)c4)ccc32)cc1	–
> 10 µM	> 10 µM	> 10 µM	> 10 µM	–	Cc1ccc(-c2ccc3c(cnn3-c3ccc(F)cc3)c2)cc1	–
3.16 µM	> 10 µM	> 10 µM	> 10 µM	–	Cc1cccc(-c2ccc3c(cnn3-c3ccc(F)cc3)c2)c1	–
0.398 µM	> 10 µM	> 10 µM	> 10 µM	–	N#Cc1ccccc1-c1ccc2c(cnn2-c2ccc(F)cc2)c1	–
> 2.51 µM	> 10 µM	> 10 µM	> 10 µM	–	N#Cc1cccc(-c2ccc3c(cnn3-c3ccc(F)cc3)c2)c1	–
> 10 µM	2 µM	> 10 µM	> 10 µM	–	N#Cc1ccc(-c2ccc3c(cnn3-c3ccc(F)cc3)c2)cc1	–
